Measurements reported in patent US8623846B2, “Diazeniumdiolate cyclohexyl derivatives” (Merck Sharp & Dohme Corp., priority 2010, dated 2014).

Tested on: Male beagle dogs
Assay: canine telemetry protocol, blood pressure reduction efficacy
Format: in vivo
Settings: change from baseline, 3 mg/kg oral gavage; for ΔPP (mm Hg) 1-6 h / ΔPP (mm Hg) 6-12 h / ΔPP (mm Hg) 12-18 h: pulse pressure; for ΔSBP (mm Hg) 1-6 h / ΔSBP (mm Hg) 6-12 h / ΔSBP (mm Hg) 12-18 h: systolic blood pressure
Procedure: Compounds of the invention were evaluated for blood pressure reduction efficacy using the following canine telemetry protocol described below.
Male beagle dogs (approximately 1-3 years old) with a body weight of between 10 and 16 kg were surgically implanted with DSI radiotelemetry devices (model: TL11M2-D70-PCT). Briefly, under an inhalant anesthesia, isoflurane/oxygen mixture (1-3.5%/to effect), the body of the telemetry device was positioned and secured intra-abdominally. Subsequently, the arterial catheter of the telemetry device was passed subcutaneously to the inguinal area and introduced into the femoral artery and advanced to the level of the descending aorta. The catheter was secured with 2-0 silk ligatures. The muscle and underlying fascia was closed over the catheter using absorbable suture and the skin was closed using non-absorbable suture. The animals were allowed a minimum recovery period of 2 weeks between surgery and the evaluation of test compounds.
Compound evaluation consisted of a 3 day paradigm at a 3 mg/kg dose. On the first day, no compounds were administered during a 24 hour period of baseline data collection. Blood pressure and heart rate data were collected continuously for one minute periods at 10 minute intervals. On the days of compound administration half the animals received test article with the other half receiving the vehicle used for compound formulation. All test materials were administered by oral gavage in a volume of 1 mL/kg. Data are expressed either as raw values (mm Hg or beats per minute) or as the change from baseline (average value for about 12 hours in low activity period prior to dosing). Change is SBP (systolic blood pressure) and PP (pulse pressure) over time is shown below: […]

| Compound | ΔPP (mm Hg) 1-6 h | ΔPP (mm Hg) 6-12 h | ΔPP (mm Hg) 12-18 h | ΔSBP (mm Hg) 1-6 h | ΔSBP (mm Hg) 6-12 h | ΔSBP (mm Hg) 12-18 h |
| --- | --- | --- | --- | --- | --- | --- |
| CCN(/[N+]([O-])=N/O[C@H]1CC[C@H](C(=O)O)CC1)C(C)(C)C [Example 2, Trans-4-({[(1Z)-2-tert-butyl-2-ethyl-1-oxido-1λ^5-diazan-1-ylidene]amino}oxy)-cyclohexanecarboxylic acid] | −9 mm Hg | −9 mm Hg | −7 mm Hg | −14 mm Hg | −10 mm Hg | −9 mm Hg |
| CCCCN(/[N+]([O-])=N/O[C@H]1CC[C@H](C(=O)O)CC1)C(C)(C)C [Example 8, Trans-4-({[(1Z)-2-butyl-2-tert-butyl-1-oxido-1λ^5-diazan-1-ylidene]amino}oxy)-cyclohexanecarboxylic acid] | −11 mm Hg | −15 mm Hg | −12 mm Hg | −14 mm Hg | −14 mm Hg | −8 mm Hg |
| CN(/[N+]([O-])=N/O[C@H]1CC[C@@H](C(=O)O)CC1)C(C)(C)C [Example 3, Cis-4-({[(1Z)-2-tert-butyl-2-methyl-1-oxido-1λ^5-diazan-1-ylidene]amino}oxy)-cyclohexanecarboxylic acid] | −7 mm Hg | −8 mm Hg | −5 mm Hg | −8 mm Hg | −10 mm Hg | −5 mm Hg |
| CN(/[N+]([O-])=N/O[C@H]1CC[C@H](C(=O)O)CC1)C(C)(C)C [Example 6, Trans-4-({[(1Z)-2-tert-butyl-2-methyl-1-oxido-1λ^5-diazan-1-ylidene]amino}oxy)-cyclohexanecarboxylic acid] | −12 mm Hg | −4 mm Hg | −2 mm Hg | −18 mm Hg | −4 mm Hg | −2 mm Hg |
| CCN(/[N+]([O-])=N/O[C@H]1CC[C@@H](C(=O)O)CC1)C(C)(C)C [Example 1, Cis-4-({[(1Z)-2-tert-butyl-2-ethyl-1-oxido-1λ^5-diazan-1-ylidene]amino}oxy)-cyclohexanecarboxylic acid] | −1 mm Hg | −6 mm Hg | −1 mm Hg | −9 mm Hg | −5 mm Hg | −1 mm Hg |
